Results from patent publication US8173639B2, “Isoquinolinone derivatives as NK3 antagonists” (H. Lundbeck A/S, priority 2007, dated 2012).

Legend:
[1] = biological target: T1, human NK3 receptor (Homo sapiens, UniProt P29371); experiment: NK3 receptor binding assay (SPA-based competition binding, 125I-NKB); details: table of Example 10; obtained as described in Example 9; read-out: Affinity Ki
T1 construct: expressed in transfected cells; membrane preparation
T1 sequence (P29371 1-465): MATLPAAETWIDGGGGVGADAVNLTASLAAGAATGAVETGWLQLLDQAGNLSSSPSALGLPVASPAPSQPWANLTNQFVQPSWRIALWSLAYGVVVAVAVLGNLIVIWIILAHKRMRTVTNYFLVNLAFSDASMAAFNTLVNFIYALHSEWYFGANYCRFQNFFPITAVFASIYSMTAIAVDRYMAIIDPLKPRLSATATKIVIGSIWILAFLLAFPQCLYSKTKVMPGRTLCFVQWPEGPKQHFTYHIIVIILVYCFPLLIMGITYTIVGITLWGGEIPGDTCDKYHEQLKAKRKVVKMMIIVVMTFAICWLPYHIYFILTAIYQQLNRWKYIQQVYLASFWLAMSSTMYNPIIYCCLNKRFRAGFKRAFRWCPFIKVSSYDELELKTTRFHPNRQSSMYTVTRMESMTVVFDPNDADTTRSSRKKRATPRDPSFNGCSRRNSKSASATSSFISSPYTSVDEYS
Method: Membranepreparation: BHK cells stably expressing the human NK3 receptor were seeded in harvesting plates in Dulbeccos MEM containing GlutaMax (862 mg/l), 1 mM sodium pyruvate, 10% fetal calf serum, 1% Pen/Strep, 1 mg/ml G418 and were grown at 34° C. in a humidified atmosphere containing 10% CO2. To increase receptor expression, 10 μM trichotatin A was added to the media 24 hours before harvest of the cells at a confluency of app 90%. Prior to the harvesting, the cells were washed twice with PBS without Mg^2+ or Ca^2+ and subsequently scrapped of in 10 ml PBS pr harvesting plate. The cells suspension were centrifuged at 1500×G in three minutes before resuspension in 15 mM Tris-HCl pH 7.5 buffer containing 2 mM MgCl2; 0.3 mM EDTA and 1 mM EGTA (buffer A). The cell suspension was homogenised and subsequently centrifuged at 4000×G in 30 minutes. The membrane-pellet was resuspended in buffer A containing 250 mM sucrose, aliquoted and stored at −80° C.
Affinity assay description: The assay was performed as a SPA-based competition-binding assay in a 50 mM Tris pH 7.4 assay buffer containing 120 mM NaCl, 3 mM MnCl2, 40 μg/ml bacitracin, 2 μg/ml Chymostatin, 1 μg/ml Phosphoramidon and 4 μg/ml Leupeptin. […] The assay plate was subsequently under agitation incubated for 90 min at RT. The plate was centrifugated 10 minutes at 500×G and counted in a topcounter 5 minutes pr well.

[2] = biological target: T1, human NK3 receptor; experiment: NK3 receptor efficacy and potency assay (FLIPR Calcium 4, BHK cells); assay type: cell-based; details: read-out: Potency cIC50
Method: BHK cells stably expressing the human NK3 receptor were seeded in 100 μl media in black walled clear-base 96-wells plates (Costar) aiming at a confluency of 95-100% at the day of assay. The assay was performed according to the FLIPR Calcium 4 Assay kit (Molecular Devices). At the day of the assay, the media was removed and the cells were washed once with the HBSS buffer (Hanks BSS buffer, pH 7.4 containing 20 mM Hepes) before 100 μl of a solution of the calcium assay reagent dissolved in the HBSS buffer containing 2.5 mM probinicid was added to the cells. The plates were incubated for 60 min at 34° C., 10% CO2 before use in the FLIPR for examination of fluorescence.
For efficacy and potency evaluation of compounds, these were diluted in HBSS buffer prior to test. For test of agonist activity, 25 μl of the diluted compound solution was added and the plate was analyzed for 5 minutes in the FLIPR. […] The plates were subsequently analyzed for 5 minutes before the assay was terminated. The maximal increase in fluorescence over background following each ligand addition was determined.

[3] = cited from earlier work

Q: With `CC[C@H](NC(=O)c1c(CN2CCc3ccccc3C2)n(-c2ccccc2)c(=O)c2ccccc12)c1ccccc1` [Example 2bg, 3-(3,4-Dihydro-1H-isoquinolin-2-ylmethyl)-1-oxo-2-phenyl-1,2-dihydro-isoquinoline-4-carboxylic acid ((S)-1-phenyl-propyl)-amide] as the molecule, how does the Ki [1] read?
A: 160 nM

Q: And the IC50 [2]?
A: 220 nM

Q: Which Ki [1] does the source give for `CC[C@H](NC(=O)c1c(CN2Cc3ccccc3C2)n(-c2ccccc2)c(=O)c2ccccc12)c1ccccc1` [Example 2bn, 3-(1,3-Dihydro-isoindol-2-ylmethyl)-1-oxo-2-phenyl-1,2-dihydro-isoquinoline-4-carboxylic acid ((S)-1-phenyl-propyl)-amide] here?
A: 160 nM

Q: And the IC50 [2]?
A: 300 nM

Q: For `CC[C@H](NC(=O)c1c(CN2CCCNCC2)n(-c2ccccc2)c(=O)c2ccccc12)c1ccccc1` [Example 2cz, 3-[1,4]Diazepan-1-ylmethyl-1-oxo-2-phenyl-1,2-dihydro-isoquinoline-4-carboxylic acid ((S)-1-phenyl-propyl)-amide], which Ki [1] is on record?
A: 76 nM

Q: And the IC50 [2]?
A: 49 nM

Q: For `CC[C@H](NC(=O)c1c(CN2CCOCC2)n(-c2ccccc2)c(=O)c2ccccc12)c1ccccc1` [Example 2r, 3-Morpholin-4-ylmethyl-1-oxo-2-phenyl-1,2-dihydro-isoquinoline-4-carboxylic acid ((S)-1-phenyl-propyl)-amide], which Ki [1] is on record?
A: 320 nM

Q: And the IC50 [2]?
A: 420 nM

Q: Which Ki [1] does the source give for `CC[C@H](NC(=O)c1c(CN2CC(C)OC(C)C2)n(-c2ccccc2)c(=O)c2ccccc12)c1ccccc1` (stereo partly drawn) [Example 2s, 3-(2,6-Dimethyl-morpholin-4-ylmethyl)-1-oxo-2-phenyl-1,2-dihydro-isoquinoline-4-carboxylic acid ((S)-1-phenyl-propyl)-amide] here?
A: 200 nM

Q: What about the IC50 [2] of the same molecule?
A: 340 nM

Q: For `CC(=O)N(C)C1(c2ccccc2)CCN(CCC[C@]2(c3ccc(Cl)c(Cl)c3)CCCN(C(=O)c3ccccc3)C2)CC1` [Osanetant, osanetant], which “effect in clinical trials versus placebo” value ([3]; in particular on positive symptoms of psychosis) is on record?
A: superior to placebo

Q: Which “effect on cognitive behaviour in clinical trials” value ([3]; schizophrenics) does the source give for `CC[C@H](NC(=O)c1c(O)c(-c2ccccc2)nc2ccccc12)c1ccccc1` [talnetant] here?
A: ameliorate the cognitive behaviour of schizophrenics
